# Measurements published in ChEMBL document CHEMBL1201862, “PubChem BioAssay data set” (2004).
# Calls of active or inactive are those of the source.
# How the values were obtained:
# [1] = A cytotoxicity screen of small molecule inhibitors of the PhoP region in Salmonella typhi identified in the primary screen. [Related pubchem assays: 1850, 1864, 1985 ]; assay type: functional
# Cytochrome P450 2D6 = Cytochrome P450 2D6 (Homo sapiens, UniProt P10635); assay: qHTS Assay for Inhibitors and Substrates of Cytochrome P450 2D6. [Related pubchem assays: 410 ]; assay type: ADME; details: read-out: Potency
# Cytochrome P450 2D6, sequence (P10635 whole entry): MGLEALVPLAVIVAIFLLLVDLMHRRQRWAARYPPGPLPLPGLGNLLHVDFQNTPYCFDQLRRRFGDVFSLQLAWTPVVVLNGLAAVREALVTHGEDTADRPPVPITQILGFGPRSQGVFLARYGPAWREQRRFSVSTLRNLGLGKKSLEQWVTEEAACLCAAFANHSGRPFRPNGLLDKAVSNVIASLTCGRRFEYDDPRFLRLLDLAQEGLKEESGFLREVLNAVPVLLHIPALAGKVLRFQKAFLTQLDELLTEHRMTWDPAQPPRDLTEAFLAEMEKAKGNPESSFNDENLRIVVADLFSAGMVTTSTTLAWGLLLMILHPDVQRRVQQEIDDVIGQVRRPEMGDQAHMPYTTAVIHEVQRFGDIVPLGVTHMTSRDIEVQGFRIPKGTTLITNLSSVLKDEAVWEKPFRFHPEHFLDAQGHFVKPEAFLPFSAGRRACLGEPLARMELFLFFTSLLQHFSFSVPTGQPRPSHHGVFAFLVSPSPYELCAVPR
# [2] = target: Acyl-homoserine lactone acylase PvdQ (Pseudomonas aeruginosa (strain LESB58), UniProt Q9I194); assay: PvdQ acylase enzyme activity blockers – biochemical, fluorescence, plate reader and imaging, cherry-picks, dose response (AID 493231)
# Acyl-homoserine lactone acylase PvdQ, sequence (Q9I194 24-193 limits assumed): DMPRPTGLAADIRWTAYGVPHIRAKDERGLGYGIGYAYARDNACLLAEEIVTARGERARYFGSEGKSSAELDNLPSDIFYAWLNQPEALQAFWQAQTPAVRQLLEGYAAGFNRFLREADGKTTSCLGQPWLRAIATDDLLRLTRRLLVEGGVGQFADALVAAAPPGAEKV
# Acyl-homoserine lactone acylase PvdQ, sequence (Q9I194 217-762 limits assumed): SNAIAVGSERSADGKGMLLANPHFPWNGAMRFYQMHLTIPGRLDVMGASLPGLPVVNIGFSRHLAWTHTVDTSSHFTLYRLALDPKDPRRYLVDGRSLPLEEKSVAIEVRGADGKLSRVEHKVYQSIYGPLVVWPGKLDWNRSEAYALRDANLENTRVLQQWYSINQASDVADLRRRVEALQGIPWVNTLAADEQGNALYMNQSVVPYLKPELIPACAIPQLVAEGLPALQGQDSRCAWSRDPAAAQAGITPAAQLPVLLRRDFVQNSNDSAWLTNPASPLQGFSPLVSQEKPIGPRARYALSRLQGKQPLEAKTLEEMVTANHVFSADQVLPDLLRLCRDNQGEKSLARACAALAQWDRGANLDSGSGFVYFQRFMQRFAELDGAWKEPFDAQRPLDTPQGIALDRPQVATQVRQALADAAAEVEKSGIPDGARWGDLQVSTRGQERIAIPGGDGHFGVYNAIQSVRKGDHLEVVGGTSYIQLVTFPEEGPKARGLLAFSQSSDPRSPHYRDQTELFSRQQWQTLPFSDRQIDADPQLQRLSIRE
# [3] = target: T1, Zinc finger protein mex-5 (Caenorhabditis elegans, UniProt Q9XUB2); assay: potency of MEX-5 RNA-binding blockers – biochemical, C. elegans, fluorescence polarization, dose response (AID 1960)
# T1 sequence (Q9XUB2 whole entry): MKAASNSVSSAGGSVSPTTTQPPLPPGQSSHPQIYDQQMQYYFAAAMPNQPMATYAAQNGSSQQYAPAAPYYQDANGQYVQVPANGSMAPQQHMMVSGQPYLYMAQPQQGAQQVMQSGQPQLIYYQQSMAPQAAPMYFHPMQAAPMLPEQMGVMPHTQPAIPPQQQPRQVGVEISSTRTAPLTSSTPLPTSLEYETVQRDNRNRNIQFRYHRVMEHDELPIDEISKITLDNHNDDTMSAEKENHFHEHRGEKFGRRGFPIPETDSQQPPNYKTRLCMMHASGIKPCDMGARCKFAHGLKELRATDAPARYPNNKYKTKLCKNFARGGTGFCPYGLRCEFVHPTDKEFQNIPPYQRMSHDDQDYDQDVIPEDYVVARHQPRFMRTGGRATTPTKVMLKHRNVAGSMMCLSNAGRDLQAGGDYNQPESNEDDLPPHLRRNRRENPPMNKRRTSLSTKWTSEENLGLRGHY
# [4] = target: T2, RNA-binding protein pos-1 (Caenorhabditis elegans, UniProt G5EF15); assay: disruptors of C. elegans POS-1 RNA interaction – biochemical, fluorescence polarization, dose response (AID 1964);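 note: purified POS-1 fused to maltose binding protein made in E. coli; potency of compounds blocking POS-1 binding to fluorescent RNA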
# T2 sequence (G5EF15 whole entry): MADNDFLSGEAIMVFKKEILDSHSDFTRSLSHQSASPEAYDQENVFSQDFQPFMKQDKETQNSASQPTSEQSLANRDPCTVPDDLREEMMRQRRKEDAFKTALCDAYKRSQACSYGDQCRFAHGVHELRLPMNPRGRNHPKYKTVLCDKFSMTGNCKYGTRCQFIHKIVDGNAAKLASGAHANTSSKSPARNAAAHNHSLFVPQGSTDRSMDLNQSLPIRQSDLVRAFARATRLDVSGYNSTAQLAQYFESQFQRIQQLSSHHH
# [5] = target: Female germline-specific tumor suppressor gld-1 (Caenorhabditis elegans, UniProt Q17339); assay: blockers of GLD-1/TGE RNA complex formation – biochemical, fluorescence polarization, C. elegans, dose response (AID 2802);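 note: fluorescence polarization of labeled TGE RNA bound by purified gld-1 protein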
# Female germline-specific tumor suppressor gld-1, sequence (Q17339 whole entry): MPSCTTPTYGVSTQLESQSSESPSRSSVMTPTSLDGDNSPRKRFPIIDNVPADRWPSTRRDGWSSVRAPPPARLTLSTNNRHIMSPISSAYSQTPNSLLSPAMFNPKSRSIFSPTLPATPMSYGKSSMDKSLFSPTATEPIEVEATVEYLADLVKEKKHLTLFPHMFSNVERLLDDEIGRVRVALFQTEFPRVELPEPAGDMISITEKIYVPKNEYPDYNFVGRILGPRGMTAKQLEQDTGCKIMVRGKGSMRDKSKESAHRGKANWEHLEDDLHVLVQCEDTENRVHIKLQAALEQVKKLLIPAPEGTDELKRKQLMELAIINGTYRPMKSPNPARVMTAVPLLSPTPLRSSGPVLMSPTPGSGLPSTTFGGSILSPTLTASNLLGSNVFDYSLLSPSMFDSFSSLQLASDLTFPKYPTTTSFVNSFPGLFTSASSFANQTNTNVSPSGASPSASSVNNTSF
# Protein Rev = Protein Rev (Human immunodeficiency virus type 1 group M subtype B (isolate HXB2)(HIV-1), UniProt P04618); assay: blockers of HIV Rev/RRE RNA complex – biochemical, fluorescence polarization, HIV-1, dose response (AID 434976); set-up: species or system Human immunodeficiency virus 1
# Protein Rev, sequence (P04618 whole entry): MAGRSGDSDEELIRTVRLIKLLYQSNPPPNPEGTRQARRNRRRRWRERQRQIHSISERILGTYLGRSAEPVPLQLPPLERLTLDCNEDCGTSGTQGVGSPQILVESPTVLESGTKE
# Cytochrome P450 2C9 = Cytochrome P450 2C9 (Homo sapiens, UniProt P11712); details: Potency
# Cytochrome P450 2C9, sequence (P11712 whole entry): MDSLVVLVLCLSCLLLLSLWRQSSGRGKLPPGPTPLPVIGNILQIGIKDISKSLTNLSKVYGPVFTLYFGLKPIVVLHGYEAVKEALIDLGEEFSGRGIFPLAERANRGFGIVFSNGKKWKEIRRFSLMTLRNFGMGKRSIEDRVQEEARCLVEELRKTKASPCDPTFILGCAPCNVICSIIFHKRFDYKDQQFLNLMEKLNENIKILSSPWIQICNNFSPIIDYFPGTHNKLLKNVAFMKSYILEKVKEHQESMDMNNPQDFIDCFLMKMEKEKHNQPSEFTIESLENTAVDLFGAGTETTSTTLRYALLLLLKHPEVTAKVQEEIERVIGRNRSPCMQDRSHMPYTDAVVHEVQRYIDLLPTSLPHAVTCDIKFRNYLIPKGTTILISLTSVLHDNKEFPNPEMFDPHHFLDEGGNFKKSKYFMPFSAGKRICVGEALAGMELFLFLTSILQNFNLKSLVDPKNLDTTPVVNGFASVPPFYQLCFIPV
# cells [6] = assay: cells
# Melanocortin receptor 4 = Melanocortin receptor 4 (Homo sapiens, UniProt P32245); assay type: functional, cell-based;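 note: Cell-based assay with luminescence read-out, confirmatory dose-response testing for agonist activity of biased ligands at MC4R; human U2OS cells with tagged receptor and beta-arrestin; potency of agonists that increase receptor coupling to beta-arrestin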
# Melanocortin receptor 4, sequence (P32245 whole entry): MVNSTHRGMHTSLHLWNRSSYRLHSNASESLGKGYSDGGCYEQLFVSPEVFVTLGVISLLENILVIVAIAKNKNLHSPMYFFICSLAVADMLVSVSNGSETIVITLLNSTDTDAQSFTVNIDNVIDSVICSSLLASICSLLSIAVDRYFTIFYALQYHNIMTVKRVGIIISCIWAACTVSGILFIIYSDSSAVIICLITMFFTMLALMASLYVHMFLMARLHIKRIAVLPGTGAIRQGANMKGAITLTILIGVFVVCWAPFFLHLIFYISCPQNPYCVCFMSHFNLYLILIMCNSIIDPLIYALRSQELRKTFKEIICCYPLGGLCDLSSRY
# [7] = target: Neurotensin receptor type 1 (Homo sapiens, UniProt P30989); assay type: functional;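 note: Image-based confirmatory dose-response assay measuring agonist activity at NTR1; NTR1-expressing U2OS osteosarcoma cells imaged for beta-arrestin GFP spot formation; agonist potency where compounds increase beta-arrestin recruitment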
# Neurotensin receptor type 1, sequence (P30989 whole entry): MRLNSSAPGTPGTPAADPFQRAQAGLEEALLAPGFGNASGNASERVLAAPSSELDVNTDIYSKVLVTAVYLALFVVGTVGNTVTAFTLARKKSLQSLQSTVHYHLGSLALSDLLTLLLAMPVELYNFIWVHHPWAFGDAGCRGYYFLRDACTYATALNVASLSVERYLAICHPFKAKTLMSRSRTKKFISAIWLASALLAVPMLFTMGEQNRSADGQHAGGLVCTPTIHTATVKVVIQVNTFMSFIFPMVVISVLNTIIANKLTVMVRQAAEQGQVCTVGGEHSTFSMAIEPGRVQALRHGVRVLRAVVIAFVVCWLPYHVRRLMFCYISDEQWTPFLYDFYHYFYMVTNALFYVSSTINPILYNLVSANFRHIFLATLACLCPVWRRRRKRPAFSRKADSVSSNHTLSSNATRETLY
# cells [8] = assay type: functional
# [9] = target: Intestinal-type alkaline phosphatase (Homo sapiens, UniProt P09923); assay: Dose Response confirmation of uHTS hits from a small molecule inhibitors of human intestinal alkaline phosphatase via a luminescent assay. [Related pubchem assays (depositor defined):AID2544, AID2574]; assay type: functional
# Intestinal-type alkaline phosphatase, sequence (P09923 whole entry): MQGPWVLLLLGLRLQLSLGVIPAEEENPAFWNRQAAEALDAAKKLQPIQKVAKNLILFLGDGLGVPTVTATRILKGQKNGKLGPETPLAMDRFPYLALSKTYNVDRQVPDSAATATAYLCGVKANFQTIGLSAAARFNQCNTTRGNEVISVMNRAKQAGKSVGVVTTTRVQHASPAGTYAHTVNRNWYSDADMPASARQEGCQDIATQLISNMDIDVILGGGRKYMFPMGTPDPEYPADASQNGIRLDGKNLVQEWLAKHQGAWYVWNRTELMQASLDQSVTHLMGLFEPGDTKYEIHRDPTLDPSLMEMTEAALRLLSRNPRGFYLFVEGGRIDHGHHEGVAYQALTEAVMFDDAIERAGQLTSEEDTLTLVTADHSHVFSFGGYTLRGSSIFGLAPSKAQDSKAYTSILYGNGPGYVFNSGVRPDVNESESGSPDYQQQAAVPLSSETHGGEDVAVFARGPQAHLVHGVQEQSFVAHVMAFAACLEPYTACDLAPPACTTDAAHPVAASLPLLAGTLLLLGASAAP
# [10] = target: T3, Neuropeptide Y receptor type 1 (Homo sapiens, UniProt P25929); assay: IC50 of human NPY-Y1 blockers – cell-based, dose response (AID 1277); assay type: functional
# T3 sequence (P25929 whole entry): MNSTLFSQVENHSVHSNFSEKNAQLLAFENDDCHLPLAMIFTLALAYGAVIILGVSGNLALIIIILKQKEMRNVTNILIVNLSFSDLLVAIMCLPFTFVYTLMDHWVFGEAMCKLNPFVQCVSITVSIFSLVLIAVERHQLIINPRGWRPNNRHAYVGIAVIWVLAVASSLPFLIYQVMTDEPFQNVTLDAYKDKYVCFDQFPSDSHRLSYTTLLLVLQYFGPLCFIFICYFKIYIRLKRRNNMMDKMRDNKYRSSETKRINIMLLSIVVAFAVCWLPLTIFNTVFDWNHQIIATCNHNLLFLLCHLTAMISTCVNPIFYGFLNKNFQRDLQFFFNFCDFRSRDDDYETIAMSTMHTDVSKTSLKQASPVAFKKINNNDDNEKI
# [11] = target: T4, Neuropeptide Y receptor type 2 (Homo sapiens, UniProt P49146); assay: IC50 for human NPY-Y2 blockade – cell-based, counter-screen for NPY-Y1 antagonist project, dose response (AID 1278); assay type: functional
# T4 sequence (P49146 whole entry): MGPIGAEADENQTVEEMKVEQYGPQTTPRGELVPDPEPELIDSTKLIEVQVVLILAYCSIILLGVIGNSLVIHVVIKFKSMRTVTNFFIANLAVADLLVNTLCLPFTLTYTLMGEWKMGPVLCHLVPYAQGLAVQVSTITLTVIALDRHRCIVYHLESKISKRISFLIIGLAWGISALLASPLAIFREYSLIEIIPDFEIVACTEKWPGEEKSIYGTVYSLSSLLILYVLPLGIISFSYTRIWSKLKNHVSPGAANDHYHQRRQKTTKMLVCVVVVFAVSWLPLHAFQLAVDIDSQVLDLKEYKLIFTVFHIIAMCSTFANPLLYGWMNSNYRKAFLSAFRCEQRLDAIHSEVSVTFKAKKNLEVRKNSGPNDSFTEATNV
# [12] = target: G-protein coupled receptor 55 (Homo sapiens, UniProt Q9Y2T6); assay: selective activators of receptor GPR55 – imaging, U2OS cells, beta-arrestin-GFP redistribution, primary screen (AID 1961); assay type: functional
# G-protein coupled receptor 55, sequence (Q9Y2T6 whole entry): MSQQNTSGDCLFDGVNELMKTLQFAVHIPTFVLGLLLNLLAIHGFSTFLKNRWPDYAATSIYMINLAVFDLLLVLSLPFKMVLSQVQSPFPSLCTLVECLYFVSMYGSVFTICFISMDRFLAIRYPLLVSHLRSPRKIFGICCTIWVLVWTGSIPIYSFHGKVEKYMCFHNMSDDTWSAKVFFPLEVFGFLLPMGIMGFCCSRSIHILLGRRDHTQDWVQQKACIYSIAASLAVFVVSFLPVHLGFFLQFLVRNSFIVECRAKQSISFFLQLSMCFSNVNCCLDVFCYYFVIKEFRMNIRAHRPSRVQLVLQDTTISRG
# [13] = NIH3T3 cell viability loss – ATP luminescence, mouse fibroblasts, counter-screen, dose response (AID 2010); assay type: functional, cell-based;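 note: cells exposed to compound for about 90 hours before reading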
# [14] = Trypanosoma cruzi growth suppression in host cells – NIH3T3 host cells, beta-gal luminescence, confirmation (AID 2044); assay type: functional, cell-based;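 note: intracellular parasites grown in NIH/3T3 mouse fibroblasts as host cells; luminescent beta-galactosidase reporter signal from transgenic T. cruzi replicating inside host cells; inhibitors lower the luminescence signal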
smiles,measurement,setting,value
COc1ccccc1C(=O)Nc1nnc(-c2ccc(F)cc2)o1,EC50,[1],> 50 µM (active)
O=C(O)[C@@H]1[C@@H]2C[C@H]3c4[nH]c5ccccc5c4CCN3C[C@@H]2CC[C@@H]1O,AC50,Cytochrome P450 2D6,31.6 µM (inconclusive)
O=C(c1cccc([N+](=O)[O-])c1)N1CC2C3C=CC(C3)C2C1 (stereo unspecified),AC50,[2],7.93 µM (active)
Cc1c(O)ccc(-c2n[nH]c(C(=O)O)c2-c2nc3ccccc3s2)c1O,EC50,[3],14 µM (inconclusive)
same,EC50,[4],15.3 µM (active)
same,IC50,[5],5.41 µM (active)
same,IC50,Protein Rev,> 75.4 µM (not active)
O=c1cc(-c2ccccc2)oc2c1ccc1ccccc12 [ALPHA-NAPHTHOFLAVONE],AC50,Cytochrome P450 2D6,12.6 µM (inconclusive)
same,AC50,Cytochrome P450 2C9,7.94 µM (inconclusive)
C#CCOCCOCCOCCNc1nc(N2CCN(C(=O)CCCCCCCCCCNC(=O)[C@@H]([C@H](C)O)n3cc(C)nn3)CC2)nc(N2CCN(C(=O)CCCCCCCCCCNC(=O)[C@@H]([C@H](C)O)n3cc(C)nn3)CC2)n1,IC50,cells [6],15.1 µM (active)
CCC(C)NC(=O)c1c(N)n(/N=C/c2cccnc2)c2nc3ccccc3nc12 (stereo unspecified),EC50,Melanocortin receptor 4,> 89.2 µM (inactive)
same,EC50,[7],> 40 µM (inactive)
COC(=O)c1cc(-c2ccc(OC)cc2)on1,AC50,[2],0.67 µM (active)
same,IC50,cells [8],3.5 µM (active)
CCCCOc1cccc(C2C(C(=O)c3ccc4c(c3)OCCO4)=C(O)C(=O)N2CCN2CCOCC2)c1 (stereo unspecified),IC50,[9],> 100 µM (inactive)
COc1ccc(N(C(=O)C2CCCCC2)S(=O)(=O)c2cccc3cccnc23)cc1,IC50,[10],> 35 µM (not active)
same,IC50,[11],> 35 µM (not active)
O=C(N/N=C/c1cccnc1)c1cccc(Cl)c1,EC50,[1],> 50 µM (active)
O=C(Nc1ccc(Cl)c(Cl)c1)N(Cc1cccnc1)Cc1ccco1,EC50,[12],> 32 µM (inactive)
same,EC50,[13],> 60 µM (not active)
same,EC50,[14],0.552 µM (active)
